This is an account of results in patent US20160257697A1, “THIOPHENE-SUBSTITUTED TETRACYCLIC COMPOUNDS AND METHODS OFUSE THEREOF FOR THE TREATMENT OF VIRAL DISEASES” (priority 2013, published 2016).

Experiment in all cases: microbe, parasite or virus in culture
Holding throughout (format): cell-based, Hepatitis C virus (HCV)
What all share (conditions): Replicon Assay A

The test system of one assay is HCV replicon 1A. An outline of the steps:
(§1)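 Compound is added to replicon cells plated at 2000 cells/well (0.5% DMSO, 5% FBS). After 3 days the cells are washed and lysed, and HCV RNA and cyclophilin mRNA are quantified by multiplex RT-PCR against a standard curve of known replicon total RNA.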

In another assay the test system is HCV replicon 2B. In a few lines: as §1
Another assay concerns HCV replicon 1AY93H. An outline of the steps:
as §1

Where [1] appears, read: Hepatitis C virus, HCV replicon 1A.
The mark [2] stands for this setting: Hepatitis C virus, read-out: 2B IC50, HCV replicon 2B.
Setting [3] is: Hepatitis C virus, read-out: 1A Y93H IC50, HCV replicon 1A Y93H.
The mark [4] stands for this setting: read-out: 1A Y93H IC50, replicon 1AY93H.

Read-outs that look alike come from different tables or passages of the source.

Take `COC(=O)N[C@H](C(=O)N1CCC[C@H]1c1ncc(-c2cc(F)c3c(c2)OC(c2cccs2)n2c-3cc3cc(-c4cnc([C@@H]5CCCN5C(=O)[C@@H](NC(=O)OC)C(C)C)[nH]4)ccc32)[nH]1)C(C)C` (mixture of isomers) [Compound 500]: the IC50 is 0.0219 nM in the assay on HCV replicon 1A (setting [1]), 2.5 nM with HCV replicon 2B (setting [2]) and 0.367 nM with HCV replicon 1AY93H (setting [3]).
For `COC(=O)N[C@H](C(=O)C1NCC[C@H]1c1ncc(-c2ccc3c(c2)OC(c2ccc(C4CC4)s2)n2c-3cc3cc(-c4c[nH]c([C@@H]5C[C@H]6C[C@H]6N5C(=O)[C@@H](NC(=O)OC)C(C)C)n4)ccc32)[nH]1)C(C)C` (mixture of isomers) [Compound 504] the same measures were 0.0167 nM, 1.52 nM and 0.245 nM.
For `COC(=O)N[C@H](C(=O)N1CCC[C@H]1c1ncc(-c2ccc3c(c2)cc2n3C(c3ccc(Cl)s3)Oc3cc(-c4cnc([C@@H]5CCCN5C(=O)[C@H](NC(=O)OC)C(C)C)[nH]4)cc(F)c3-2)[nH]1)C(C)C` (mixture of isomers) [Compound 506] the same measures were 0.0171 nM, 0.471 nM and 0.397 nM.
For `COC(=O)N[C@H](C(=O)N1CCC[C@H]1c1ncc(-c2cc(F)c3c(c2)OC(c2ccc(C4CC4)s2)n2c-3cc3cc(-c4cnc([C@@H]5CCCN5C(=O)[C@@H](NC(=O)OC)C(C)C)[nH]4)ccc32)[nH]1)C(C)C` (mixture of isomers) [Compound 510] the same measures were 0.00793 nM, 0.0488 nM and 0.0979 nM.
Turning to `COC(=O)N[C@H](C(=O)N1C2C[C@@H]2C[C@H]1c1nc(-c2ccc3c(c2)cc2n3C(c3ccc(Cl)s3)Oc3cc(-c4c[nH]c([C@@H]5C[C@H]6C[C@H]6N5C(=O)[C@@H](NC(=O)OC)C(C)C)n4)ccc3-2)c[nH]1)C(C)C` (mixture of isomers) [Compound 710], the IC50 came to 0.05 nM in the assay on HCV replicon 1A (setting [1]), 1.08 nM in the assay with HCV replicon 2B (setting [2]) and 0.2 nM in the assay on HCV replicon 1AY93H (setting [3]).
For `COC(=O)N[C@H](C(=O)N1C[C@H](F)C[C@H]1c1nc(-c2ccc3c(c2)cc2n3C(c3cc(C)c(C)s3)Oc3cc(-c4cnc([C@@H]5C[C@@H](F)CN5C(=O)[C@@H](NC(=O)OC)C(C)C)[nH]4)ccc3-2)c[nH]1)C(C)C` (mixture of isomers) [Compound 711] the same measures were 0.027 nM, 0.029 nM and 0.12 nM.
For `COC(=O)N[C@H](C(=O)N1CCC[C@H]1c1nc(-c2cc(F)c3c(c2)OC(c2ccc(C4CC4)s2)n2c-3cc3cc(-c4c[nH]c([C@@H]5C[C@H]6C[C@H]6N5C(=O)[C@@H](NC(=O)OC)[C@@H](C)OC)n4)ccc32)c[nH]1)C(C)C` (mixture of isomers) [Compound 723] the same measures were 0.0027 nM, 0.08 nM and 0.046 nM.
Regarding `CCN(CC)[C@@H](C(=O)N1C[C@H](F)C[C@H]1c1nc(-c2ccc3c(c2)cc2n3C(c3cc(C)c(C)s3)Oc3cc(-c4c[nH]c([C@@H]5C[C@@H](F)CN5C(=O)[C@@H](NC(=O)OC)C(C)C)n4)ccc3-2)c[nH]1)c1ccccc1` (mixture of isomers) [Compound 724], the IC50 with HCV replicon 1A (setting [1]) turned out to be 0.063 nM; in the assay on HCV replicon 2B (setting [2]) it was 15.3 nM; with HCV replicon 1AY93H (setting [3]), 0.37 nM.
For `COC(=O)N[C@H](C(=O)N1C[C@H](F)C[C@H]1c1ncc(-c2ccc3c(c2)OC(c2cc(C)c(C)s2)n2c-3cc3cc(-c4c[nH]c([C@@H]5C[C@@H](F)CN5C(=O)[C@@H](NC(=O)OC)C5CCOCC5)n4)ccc32)[nH]1)C(C)C` (mixture of isomers) [Compound 725] the same measures were 0.035 nM, 0.76 nM and 0.058 nM.
In the same order, the values of `COC(=O)N[C@H](C(=O)N1CCC[C@H]1c1nc(-c2ccc3c(c2)OC(c2cc4sccc4s2)n2c-3cc3cc(-c4c[nH]c([C@@H]5C[C@H]6C[C@H]6N5C(=O)[C@@H](NC(=O)OC)C5CCOCC5)n4)ccc32)c[nH]1)C(C)C` (mixture of isomers) [Compound 726] are 0.0063 nM, 0.16 nM and 0.047 nM.
Take `COC(=O)N[C@H](C(=O)N1CCC[C@H]1c1nc(-c2ccc3c(c2)OC(c2ccc(Cl)s2)n2c-3cc3cc(-c4c[nH]c([C@@H]5CCCN5C(=O)[C@@H](NC(=O)OC)C5CCOCC5)n4)ccc32)c[nH]1)C1CCOCC1` (mixture of isomers) [Compound 727]: the figures for the IC50 with HCV replicon 1A (setting [1]), in the assay with HCV replicon 2B (setting [2]) and with HCV replicon 1AY93H (setting [3]) were 0.024 nM, 0.027 nM and 0.056 nM, respectively.
In the case of `COC(=O)N[C@H](C(=O)N1CCC[C@H]1c1nc(-c2ccc3c(c2)OC(c2ccc(C4CC4)s2)n2c-3cc3cc(-c4c[nH]c([C@@H]5CCCN5C(=O)[C@@H](NC(=O)OC)C5CCOCC5)n4)ccc32)c[nH]1)C1CCOCC1` (mixture of isomers) [Compound 728], the IC50 with HCV replicon 1A (setting [1]) was 0.022 nM; in the assay with HCV replicon 2B (setting [2]) it was 0.022 nM; in the assay with HCV replicon 1AY93H (setting [3]), 0.02 nM.
With `CCN(CC)[C@@H](C(=O)N1C[C@H](F)C[C@H]1c1nc(-c2ccc3c(c2)OC(c2ccc(Cl)s2)n2c-3cc3cc(-c4c[nH]c([C@@H]5C[C@@H](F)CN5C(=O)[C@@H](c5ccccc5)N(CC)CC)n4)ccc32)c[nH]1)c1ccccc1` (mixture of isomers) [Compound 732], the IC50 was 0.16 nM in the assay on HCV replicon 1A (setting [1]), 12.5 nM in the assay with HCV replicon 2B (setting [2]) and 0.4 nM in the assay on HCV replicon 1AY93H (setting [3]).
For `CCN(CC)[C@@H](C(=O)N1C[C@H](F)C[C@H]1c1nc(-c2ccc3c(c2)OC(c2ccc(C4CC4)s2)n2c-3cc3cc(-c4c[nH]c([C@@H]5C[C@@H](F)CN5C(=O)[C@@H](c5ccccc5)N(CC)CC)n4)ccc32)c[nH]1)c1ccccc1` (mixture of isomers) [Compound 733] the same measures were 0.045 nM, 0.063 nM and 0.35 nM.
For `COC(=O)N[C@H](C(=O)N1C[C@H](F)C[C@H]1c1ncc(-c2ccc3c(c2)OC(c2ccc(C4CC4)s2)n2c-3cc3cc(-c4cnc([C@@H]5C[C@@H](F)CN5C(=O)[C@@H](NC(=O)OC)C5CCOCC5)[nH]4)ccc32)[nH]1)C1CCOCC1` (mixture of isomers) [Compound 734] the same measures were 0.42 nM, 116 nM and 0.24 nM.
In the same order, the values of `COC(=O)N[C@H](C(=O)N1C[C@H](F)C[C@H]1c1ncc(-c2ccc3c(c2)OC(c2cc4ccccc4s2)n2c-3cc3cc(-c4cnc([C@@H]5C[C@@H](F)CN5C(=O)[C@@H](NC(=O)OC)C5CCOCC5)[nH]4)ccc32)[nH]1)C(C)C` (mixture of isomers) [Compound 807] are 0.003 nM, 2 nM and 0.025 nM.
With `CCN(CC)[C@@H](C(=O)N1CCC[C@H]1c1ncc(-c2ccc3c(c2)cc2n3C(c3cc4ccccc4s3)Oc3cc(-c4cnc([C@@H]5C[C@@H](F)CN5C(=O)[C@@H](c5ccccc5)N(CC)CC)[nH]4)ccc3-2)[nH]1)c1ccccc1` (mixture of isomers) [Compound 808], the IC50 with HCV replicon 1A (setting [1]) turned out to be 0.026 nM; in the assay with HCV replicon 2B (setting [2]) it was 0.32 nM; with HCV replicon 1AY93H (setting [3]) it was 1.2 nM.
As for `COC(=O)N[C@H](C(=O)N1CCC[C@H]1c1ncc(-c2cc(C)c3c(c2)OC(c2cc(C)c(C)s2)n2c-3cc3cc(-c4cnc([C@@H]5CCCN5C(=O)[C@@H](NC(=O)OC)C(C)C)[nH]4)ccc32)[nH]1)C(C)C` (single isomer, unassigned) [Compound 15], the IC50 was 0.0029 nM in the assay with HCV replicon 1A (Hepatitis C virus, replicon 1A); 2.28 nM in the assay with HCV replicon 2B (read-out: 2B IC50, replicon 2B); 18.1 nM with HCV replicon 1AY93H (setting [4]).
As to `COC(=O)N[C@H](C(=O)N1CCC[C@H]1c1ncc(-c2cc(C)c3c(c2)OC(c2cc(C)c(C)s2)n2c-3cc3cc(-c4cnc([C@@H]5CCCN5C(=O)[C@@H](NC(=O)OC)C(C)C)[nH]4)ccc32)[nH]1)C(C)C` (single isomer, unassigned) [Compound 16], the IC50 in the assay on HCV replicon 1A (replicon 1A) stood at 0.0024 nM; in the assay with HCV replicon 2B (read-out: 2B IC50, replicon 2B), 0.171 nM; in the assay with HCV replicon 1AY93H (setting [4]), 0.49 nM.
With `COC(=O)N[C@H](C(=O)N1CCC[C@H]1c1ncc(-c2cc(F)c3c(c2)OC(c2ccc(OC)s2)n2c-3cc3cc(-c4cnc([C@@H]5CCCN5C(=O)[C@@H](NC(=O)OC)C(C)C)[nH]4)ccc32)[nH]1)C(C)C` (single isomer, unassigned) [Compound 19], the IC50 with HCV replicon 1A (Hepatitis C virus, replicon 1A) was determined as 0.0016 nM; in the assay on HCV replicon 2B (read-out: 2B IC50, replicon 2B) it was 1.88 nM; with HCV replicon 1AY93H (setting [4]), 0.5 nM.
In the same order, the values of `COC(=O)N[C@H](C(=O)N1CCC[C@H]1c1ncc(-c2ccc3c(c2)OC(c2ccc(C4CC4)s2)n2c-3c(C)c3cc(-c4cnc([C@@H]5CCCN5C(=O)[C@@H](NC(=O)OC)C(C)C)[nH]4)ccc32)[nH]1)C(C)C` (single isomer, unassigned) [Compound 21] are 0.0019 nM, 0.26 nM and 0.22 nM.
Take `COC(=O)N[C@H](C(=O)N1CCC[C@H]1c1ncc(-c2ccc3c(c2)OC(c2ccc(C4CC4)s2)n2c-3c(C)c3cc(-c4cnc([C@@H]5CCCN5C(=O)[C@@H](NC(=O)OC)C(C)C)[nH]4)ccc32)[nH]1)C(C)C` (single isomer, unassigned) [Compound 22]: the IC50 amounted to 0.002 nM in the assay on HCV replicon 1A (replicon 1A); 1.84 nM in the assay with HCV replicon 2B (read-out: 2B IC50, replicon 2B); 1.38 nM in the assay on HCV replicon 1AY93H (setting [4]).
On to `COC(=O)N[C@H](C(=O)N1CCC[C@H]1c1ncc(-c2cc(F)c3c(c2)OC(c2sccc2C2CC2)n2c-3cc3cc(-c4cnc([C@@H]5CCCN5C(=O)[C@@H](NC(=O)OC)C(C)C)[nH]4)ccc32)[nH]1)C(C)C` (single isomer, unassigned) [Compound 25], for which the IC50 in the assay on HCV replicon 1A (Hepatitis C virus, replicon 1A) worked out at 0.0043 nM; with HCV replicon 2B (Hepatitis C virus, read-out: 2B IC50 (nM), replicon 2B), 15.1 nM; with HCV replicon 1AY93H (Hepatitis C virus, read-out: 1A Y93H IC50 (nM), replicon 1AY93H) it was 14.4 nM.
As to `[2H]C(C)(C)C(NC(=O)OC)C(=O)N1CCC[C@H]1c1ncc(-c2cc(F)c3c(c2)OC(c2ccc(C4CC4)s2)n2c-3cc3cc(-c4cnc([C@@H]5CCCN5C(=O)[C@@H](NC(=O)OC)C(C)C)[nH]4)ccc32)[nH]1` (single isomer, unassigned) [Compound 29], the IC50 with HCV replicon 1A (replicon 1A) is 0.0024 nM; in the assay with HCV replicon 2B (read-out: 2B IC50, replicon 2B), 1.98 nM; in the assay with HCV replicon 1AY93H (setting [4]), 1.32 nM.
